# Patent US20030229053A1, “Compounds and methods for the treatment or prevention of flavivirus infections” (Shire BioChem Inc., priority 2001, published 2003)
# Where two headings read alike, the source gives them in different places.
# Molecular target: HCV NS5B RNA-dependent RNA polymerase (Hepatitis C virus genotype 1b, UniProt P26663)
# Assay: In vitro RNA-dependent RNA polymerase assay (Assay 1), polyA/oligo dT, TCA precipitation
# Type: biochemical
# Experimental: Purification of Recombinant NS5B Using Fast Protein Liquid Chromatography (FPLC):
# Soluble NS5B protein in the S3 fraction was diluted to lower the NaCl concentration to 300 mM, then it incubated batchwise with DEAE sepharose beads (Amersham-Pharmacia) for 2 hrs at 4° C., as described by Behrens et al. (1996). Unbound material was cleared by centrifugation for 15 min at 4° C., at 25,000 rpm using a SW41 rotor (Beckman). The supernatant was further diluted to lower the NaCl concentration to 200 mM and subsequently loaded, with a flow rate of 1 ml/min, on a 5 ml HiTrap® heparin column (Amersham-Pharmacia) connected to an FPLC® system (Amersham-Pharmacia). Bound proteins were eluted in 1 ml fractions, using a continuous NaCl gradient of 0.2 to 1 M, over a 25 ml volume. NS5B-containing fractions were identified by sodium dodecyl sulfate polyacrylamide gel electrophoresis (SDS-PAGE), followed by western blotting using the anti-NS5B antiserum at a dilution of 1:2000. Positive fractions were pooled and the elution buffer was exchanged against a 50 mM NaPO4 pH 7.0, 20% glycerol, 0.5% triton X-100 and 10 mM DTT, using a PD-10 column (Amersham-Pharmacia). The sample was then loaded onto a 1 ml HiTrap® SP column (Amersham-Pharmacia), with a flow rate of 0.1 ml/min. Bound proteins were eluted using a continuous 0 to 1 M NaCl gradient over a 15 ml volume. Eluted fractions were analyzed by SDS-PAGE and western blotting. Alternatively, proteins were visualized, following SDS-PAGE, by silver staining using the Silver Stain Plus kit (BioRad) as described by the manufacturer. […]
# In vitro RNA-dependent RNA Polymerase Assays Used to Evaluate Biaryl Analogues (Assay 1):
# RdRp assays were conducted using the homopolymeric template/primer polyA/oligo dT. All RdRp reactions were performed in a total volume of 50 μl, and in a basic buffer consisting of 20 mM Tris-HCl pH 7.5, 1 mM DTT, 50 mM NaCl, 5 mM MgCl2, 0.5 μCi […] (3000 Ci/mmol), 15 μM cold UTP and 20 U RNasin (Promega). Standard HCV RdRp reactions contained 200 ng of purified NS5B protein. PolyA RNAs (Amersham-Pharmacia) was resuspended at 400 ng/μl. The primer oligodT15 (Canadian life technologies) was diluted to a concentration of […] (7.6 ng/μl). Templates and primers were mixed volume to volume, denatured at 95° C. for 5 min and annealed at 37° C. for 10 min. Following a two hour incubation at 22° C., reactions were stopped by the addition of 100 μg of sonicated salmon sperm DNA (Life Technologies) and 1 ml of 10% trichloroacetic acid-0.5% tetrasodium pyrophosphate (TCA-PPi). Nucleic acids were precipitated at 4° C. for 30 min after which samples were filtered on GF/C glass microfiber filters (Millipore). Membranes were subsequently washed with 25 ml of a 1% TCA-0.1% PPi solution, then air dried. Incorporated radioactivity was quantified using a liquid scintillation counter (1450-Microbeta, Wallac). Results are shown in Table 1, in the column indicated as Assay 1.
# [1] = polyA/oligo dT template/primer, 200 ng NS5B, 2 h at 22° C., read-out: RNA pol Assay 1 IC50 (μm)
# Sequence of HCV NS5B RNA-dependent RNA polymerase (P26663 2420-3010 limits assumed): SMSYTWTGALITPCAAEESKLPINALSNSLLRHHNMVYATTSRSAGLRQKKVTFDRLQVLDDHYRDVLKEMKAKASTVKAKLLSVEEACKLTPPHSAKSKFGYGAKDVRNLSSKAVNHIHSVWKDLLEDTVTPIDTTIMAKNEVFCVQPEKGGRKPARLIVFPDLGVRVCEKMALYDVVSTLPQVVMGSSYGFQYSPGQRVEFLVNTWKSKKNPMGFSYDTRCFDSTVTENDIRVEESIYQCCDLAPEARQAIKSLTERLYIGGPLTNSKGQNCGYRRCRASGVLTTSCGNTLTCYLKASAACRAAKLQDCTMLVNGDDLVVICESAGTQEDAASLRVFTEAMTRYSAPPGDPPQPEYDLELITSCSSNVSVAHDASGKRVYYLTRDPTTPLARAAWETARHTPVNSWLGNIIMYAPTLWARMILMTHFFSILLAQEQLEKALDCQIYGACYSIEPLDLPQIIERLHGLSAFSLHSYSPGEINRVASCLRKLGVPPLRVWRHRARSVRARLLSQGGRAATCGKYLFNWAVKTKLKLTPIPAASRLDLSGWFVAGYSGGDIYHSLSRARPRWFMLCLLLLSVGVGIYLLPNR
IC50 [1] [µM],SMILES,IC50 [µM]
< 5,"O=C(O)[C@H](Cc1ccccc1)N(Cc1ccc(-c2cc(C(F)(F)F)ccc2Cl)o1)C(=O)c1ccc(Cl)cc1Cl [compound #61, (2s)-2-[[5-(2-Chloro-5-trifluoromethyl-phenyl)-furan-2-ylmethyl]-(2,4-dichloro-benzoyl)-amino]-3-phenyl-propionic acid]",–
< 5,"O=C(O)[C@H](Cc1ccccc1)N(Cc1ccc(-c2ccccc2[N+](=O)[O-])o1)C(=O)c1ccc(Cl)cc1Cl [compound #62, (2s)-2-{(2,4-Dichloro-benzoyl)-[5-(2-nitro-phenyl)-furan-2-ylmethyl]-amino}-3-phenyl-propionic acid]",–
< 5,"O=C(O)C[C@H](Cc1ccccc1)N(Cc1ccc(-c2cccc(C(F)(F)F)c2)o1)C(=O)c1ccc(Cl)cc1Cl [compound #63, (3s)-3-{(2,4-Dichloro-benzoyl)-[5-(3-trifluoromethyl-phenyl)-furan-2-ylmethyl]-amino}-4-phenyl-butyric acid]",–
< 5,"O=C(O)[C@H](Cc1ccccc1)N(Cc1ccc(-c2ccc(Cl)c(Cl)c2)o1)C(=O)c1ccc(Cl)cc1Cl [compound #65, (2s)-2-{(2,4-Dichloro-benzoyl)-[5-(3,4-dichloro-phenyl)-furan-2-ylmethyl]-amino}-3-phenyl-propionic acid]",–
< 5,"O=C(O)[C@H](Cc1ccccc1)N(Cc1ccc(-c2ccc(Cl)cc2Cl)o1)C(=O)c1ccc(Cl)cc1Cl [compound #67, (2s)-2-{(2,4-Dichloro-benzoyl)-[5-(2,4-dichloro-phenyl)-furan-2-ylmethyl]-amino}-3-phenyl-propionic acid]",–
< 5,"O=C(O)[C@H](Cc1ccccc1)N(Cc1ccc(Br)o1)C(=O)c1ccc(Cl)cc1Br [compound #68, (2s)-2-[(2-Bromo-4-chloro-benzoyl)-(5-bromo-furan-2-ylmethyl)-amino]-3-phenyl-propionic acid]",–
< 5,"O=C(O)[C@H](Cc1ccccc1)N(Cc1ccc(-c2ccc(F)c(Cl)c2)o1)C(=O)c1ccc(Cl)cc1Cl [compound #69, (2s)-2-[[5-(3-Chloro-4-fluoro-phenyl)-furan-2-ylmethyl]-(2,4-dichloro-benzoyl)-amino]-3-phenyl-propionic acid]",–
< 5,"O=C(O)[C@H](Cc1ccccc1)N(Cc1ccc(-c2ccc(Cl)c(F)c2)o1)C(=O)c1ccc(Cl)cc1Cl [compound #70, (2s)-2-[[5-(4-Chloro-3-fluoro-phenyl)-furan-2-ylmethyl]-(2,4-dichloro-benzoyl)-amino]-3-phenyl-propionic acid]",–
< 5,"O=C(O)[C@H](Cc1ccccc1)N(Cc1ccc(Br)o1)C(=O)c1ccc(Cl)cc1I [compound #71, (2s)-2-[(5-Bromo-furan-2-ylmethyl)-(4-chloro-2-iodo-benzoyl)-amino]-3-phenyl-propionic acid]",–
< 5,"CCOC(=O)c1ccccc1-c1ccc(CN(C(=O)c2ccc(Cl)cc2Cl)[C@@H](Cc2ccccc2)C(=O)O)o1 [compound #72, (2s)-2-(5-{[(1s-1-Carboxy-2-phenyl-ethyl)-(2,4-dichloro-benzoyl)-amino]-methyl}-furan-2-yl)-benzoic acid ethyl ester]",–
< 5,"O=C(O)c1ccccc1-c1ccc(CN(C(=O)c2ccc(Cl)cc2Cl)[C@@H](Cc2ccccc2)C(=O)O)o1 [compound #73, (2s)-2-(5-{[(1-Carboxy-2-phenyl-ethyl)-(2,4-dichloro-benzoyl)-amino]-methyl}-furan-2-yl)-benzoic acid]",–
< 5,"O=C(O)[C@H](Cc1ccccc1)N(Cc1ccc(-c2nccs2)o1)C(=O)c1ccc(Cl)cc1Cl [compound #74, (2s)-2-[(2,4-Dichloro-benzoyl)-(5-thiazol-2-yl-furan-2-ylmethyl)-amino]-3-phenyl-propionic acid]",–
5 to 20,"O=C(O)[C@H](Cc1ccccc1)N(Cc1ccco1)C(=O)c1ccc(Cl)cc1Cl [compound #75, (2s)-2-[(2,4-Dichloro-benzoyl)-furan-2-ylmethyl-amino]-3-phenyl-propionic acid]",–
< 5,"O=C(O)c1cccc(-c2ccc(CN(C(=O)c3ccc(Cl)cc3Cl)[C@@H](Cc3ccccc3)C(=O)O)o2)c1 [compound #76, (2s)-3-(5-{[(1s-1-Carboxy-2-phenyl-ethyl)-(2,4-dichloro-benzoyl)-amino]-methyl}-furan-2-yl)-benzoic acid]",–
< 5,"O=C(O)c1ccc(-c2ccc(CN(C(=O)c3ccc(Cl)cc3Cl)[C@@H](Cc3ccccc3)C(=O)O)o2)cc1 [compound #77, (2s)-4-(5-{[(1s-1-Carboxy-2-phenyl-ethyl)-(2,4-dichloro-benzoyl)-amino]-methyl}-furan-2-yl)-benzoic acid]",–
< 5,"O=C(O)[C@H](Cc1ccccc1)N(Cc1ccc(-c2cccc(C(F)(F)F)c2)o1)C(=O)c1ccc(Cl)cc1Br [compound #78, (2s)-2-{(2-Bromo-4-chloro-benzoyl)-[5-(3-trifluoromethyl-phenyl)-furan-2-ylmethyl]-amino}-3-phenyl-propionic acid]",–
< 5,"O=C(O)[C@H](Cc1ccccc1)N(Cc1ccc(-c2cc(F)cc(F)c2)o1)C(=O)c1ccc(Cl)cc1Cl [compound #79, (2s)-2-{(2,4-Dichloro-benzoyl)-[5-(3,5-difluoro-phenyl)-furan-2-ylmethyl]-amino}-3-phenyl-propionic acid]",–
< 5,"Cc1cccc(-c2ccc(CN(C(=O)c3ccc(Cl)cc3Cl)[C@@H](Cc3ccccc3)C(=O)O)o2)c1 [compound #80, (2s)-2-[(2,4-Dichloro-benzoyl)-(5-m-tolyl-furan-2-ylmethyl)-amino]-3-phenyl-propionic acid]",–
< 5,"O=C(O)[C@H](Cc1ccccc1)N(Cc1ccc(-c2cccc(F)c2)o1)C(=O)c1ccc(Cl)cc1Cl [compound #81, (2s)-2-{(2,4-Dichloro-benzoyl)-[5-(3-fluoro-phenyl)-furan-2-ylmethyl]-amino}-3-phenyl-propionic acid]",–
–,"O=C(O)[C@H](Cc1ccccc1)N(Cc1ccc(Br)s1)C(=O)c1ccc(Cl)cc1Cl [compound #82, (2s)-2-[(5-Bromo-thiophen-2-ylmethyl)-(2,4-dichloro-benzoyl)-amino]-3-phenyl-propionic acid]",< 5
< 5,"O=C(O)c1ccc(-c2ccc(CN(C(=O)c3ccc(Cl)cc3Cl)[C@@H](Cc3ccccc3)C(=O)O)s2)cc1 [compound #83, (2s)-4-(5-{[(1s-1-Carboxy-2-phenyl-ethyl)-(2,4-dichloro-benzoyl)-amino]-methyl}-thiophen-2-yl)-benzoic acid]",–
< 5,"COC(=O)c1ccc(-c2ccc(CN(C(=O)c3ccc(Cl)cc3Cl)[C@@H](Cc3ccccc3)C(=O)O)s2)cc1 [compound #84, (2s)-4-(5-{[(1-Carboxy-2-phenyl-ethyl)-(2,4-dichloro-benzoyl)-amino]-methyl}-thiophen-2-yl)-benzoic acid methyl ester]",–
–,"O=C(O)[C@H](Cc1ccccc1)N(Cc1ccc(-c2cc3ccccc3o2)s1)C(=O)c1ccc(Cl)cc1Cl [compound #85, (2s)-2-[(5-Benzofuran-2-yl-thiophen-2-ylmethyl)-(2,4-dichloro-benzoyl)-amino]-3-phenyl-propionic acid]",< 5
< 5,"O=C(O)[C@H](Cc1ccccc1)N(Cc1cc(-c2ccc(Cl)c(Cl)c2)cs1)C(=O)c1ccc(Cl)cc1Cl [compound #87, (2s)-2-{(2,4-Dichloro-benzoyl)-[4-(3,4-dichloro-phenyl)-thiophen-2-ylmethyl]-amino}-3-phenyl-propionic acid]",–
